Reference: US7507860B2 (Pfizer Inc., priority 2004, dated 2009)
Numbering of substitutions follows the chain as printed. Read-outs that look alike come from different tables or passages of the source.

Legend:
androgen receptor = target: T1, androgen receptor (Homo sapiens, UniProt P10275); experiment: AR antagonist cell assay (MDA-MB453-MMTV clone 54-19 luciferase reporter, 100 pM DHT); format: cell-based
T1 sequence (P10275 1-920 Q868H): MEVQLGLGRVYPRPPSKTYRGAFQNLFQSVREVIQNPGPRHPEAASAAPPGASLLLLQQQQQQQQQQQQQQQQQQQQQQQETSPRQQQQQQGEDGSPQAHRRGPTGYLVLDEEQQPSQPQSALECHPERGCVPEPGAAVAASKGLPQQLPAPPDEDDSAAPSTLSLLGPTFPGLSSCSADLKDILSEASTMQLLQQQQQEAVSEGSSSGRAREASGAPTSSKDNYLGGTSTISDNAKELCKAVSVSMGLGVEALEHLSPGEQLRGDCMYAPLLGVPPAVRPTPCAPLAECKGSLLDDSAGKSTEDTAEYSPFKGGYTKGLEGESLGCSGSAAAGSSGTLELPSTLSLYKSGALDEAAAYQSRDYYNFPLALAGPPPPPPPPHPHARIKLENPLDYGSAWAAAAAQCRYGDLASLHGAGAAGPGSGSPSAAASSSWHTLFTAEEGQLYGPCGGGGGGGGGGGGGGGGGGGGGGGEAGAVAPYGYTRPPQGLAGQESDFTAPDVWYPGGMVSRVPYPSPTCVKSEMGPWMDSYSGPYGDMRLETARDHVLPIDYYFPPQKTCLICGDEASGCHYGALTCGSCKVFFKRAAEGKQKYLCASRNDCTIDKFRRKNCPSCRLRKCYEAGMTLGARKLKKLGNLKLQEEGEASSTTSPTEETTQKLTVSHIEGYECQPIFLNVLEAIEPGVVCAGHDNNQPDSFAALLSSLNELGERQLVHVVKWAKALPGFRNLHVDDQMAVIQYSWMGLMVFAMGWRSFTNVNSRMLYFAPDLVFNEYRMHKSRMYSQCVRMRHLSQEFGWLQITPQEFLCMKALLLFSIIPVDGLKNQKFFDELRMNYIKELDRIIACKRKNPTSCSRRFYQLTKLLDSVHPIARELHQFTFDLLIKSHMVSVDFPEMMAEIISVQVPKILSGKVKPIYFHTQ
Procedure, shortened: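 MDA-MB453 cells stably carrying an MMTV-ARE firefly luciferase reporter were plated overnight at 10,000/well in phenol-red-free, charcoal-stripped serum medium. Cells were stimulated with 100 pM DHT (final) for 17 hr at 37 °C, and AR antagonism was read as luciferase signal; values are means of multiple tests.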

[1] = target: T2, human androgen receptor (hAR) (Homo sapiens, UniProt P10275); experiment: Competitive binding analysis on baculovirus/Sf9 generated hAR extracts with 3H-DHT tracer; conditions: hAR extract, 1 nM 3H-DHT, one hour at 4° C; mean of multiple tests; read-out: AR Binding IC50
T2 construct: made in house; host or cells: baculovirus/Sf9 insect cells (crude extract)
T2 sequence (P10275 1-920): T1 sequence (P10275 1-920 Q868H) with H868Q
Procedure, shortened: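 Baculovirus/Sf9-expressed hAR extract incubated with hydroxylapatite, 1 nM 3H-DHT and decreasing compound concentrations for 1 h at 4 °C, then washed three times to remove unbound tracer. Bound 3H-DHT compared with no-competitor maximum; affinity given as concentration inhibiting half of maximum binding, mean of multiple tests.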

[2] = read-out: AR Cell IC50; MDA-MB453-MMTV clone 54-19, inhibition of 100 pM DHT induction, 17 hr; mean of multiple tests
[3] = MDA-MB453-MMTV clone 54-19, inhibition of 100 pM DHT induction, 17 hr; mean of multiple tests; read-out: AR Cell IC50

| Structure (SMILES) | IC50 (androgen receptor; [2]) [nM] | IC50 [1] [nM] | IC50 (androgen receptor; [3]) [nM] |
| --- | --- | --- | --- |
| CCCC(Oc1ccc(C#N)c(C(F)(F)F)c1)C(=O)NCCc1c[nH]c2ccc(OC)cc12 (stereo not shown) [Example 97, 2-(4-Cyano-3-trifluoromethyl-phenoxy)-pentanoic acid [2-(5-methoxy-1H-indol-3-yl)-ethyl]-amide] | 26 | 111 |  |
| CCCC(Oc1ccc(C#N)c(Cl)c1)C(=O)OCC (stereo not shown) [Example 99, 2-(3-Chloro-4-cyano-phenoxy)-pentanoic acid ethyl ester] |  | 31 | 749 |
| CCCC(Oc1ccc(C#N)c(Cl)c1)C(=O)NCCc1c[nH]c2ccccc12 (stereo not shown) [Example 101, 2-(3-Chloro-4-cyano-phenoxy)-pentanoic acid [2-(1H-indol-3-yl)-ethyl]-amide] |  | 53 | 38 |
| CCCC(Oc1ccc(C#N)c(Cl)c1)C(=O)NCc1ccccc1 (stereo not shown) [Example 102, 2-(3-Chloro-4-cyano-phenoxy)-pentanoic acid benzylamide] | 27 | 125 |  |
| CCCC(Oc1ccc(C#N)c(Cl)c1)C(=O)NCCc1ccc(O)cc1 (stereo not shown) [Example 103, 2-(3-Chloro-4-cyano-phenoxy)-pentanoic acid [2-(4-hydroxy-phenyl)-ethyl]-amide] | 87 | 140 |  |
| CCC[C@H](Oc1ccc(C#N)c(Cl)c1)C(=O)NCc1ccccc1 [Example 104, (S)-2-(3-Chloro-4-cyano-phenoxy)-pentanoic acid benzylamide] | 7 | 241 |  |
| CCC[C@H](Oc1ccc(C#N)c(Cl)c1)C(=O)NCCc1ccc(O)cc1 [Example 105, (S)-2-(3-Chloro-4-cyano-phenoxy)-pentanoic acid [2-(4-hydroxy-phenyl)ethyl]amide] | 88 | 241 |  |
| CCC[C@H](Oc1ccc(C#N)c(Cl)c1)C(=O)NCCc1c[nH]c2ccccc12 [Example 106, (S)-2-(3-Chloro-4-cyano-phenoxy)-pentanoic acid [2-(1H-indol-3-yl)-ethyl]-amide] |  | 47 | 3 |
| CCC[C@H](Oc1ccc(C#N)c(C(F)(F)F)c1)C(=O)NCc1cccc(C)c1 [Example 107, (S)-2-(4-Cyano-3-trifluoromethyl-phenoxy)-pentanoic acid-3-methyl-benzylamide] |  | 93 | < 0.32 |
| CCC[C@H](Oc1ccc(C#N)c(C(F)(F)F)c1)C(=O)NCCc1c[nH]c2ccccc12 [Example 108, (S)-2-(4-Cyano-3-trifluoromethyl-phenoxy)-pentanoic acid [2-(1H-indol-3-yl)ethyl]-amide] |  | 21 | < 0.32 |
| CCC[C@H](Oc1ccc(C#N)c(C(F)(F)F)c1)C(=O)NCCc1ccc(O)cc1 [Example 109] |  | 251 | 58 |
| CC(C)C[C@@H](Oc1ccc(C#N)c(C(F)(F)F)c1)C(=O)NCCc1ccc(O)cc1 [Example 111] |  | 148 | 164 |
| CCCC(Oc1ccc(C#N)c(C(F)(F)F)c1)C(=O)NC(C)c1ccc(OC)cc1 (stereo not shown) [Example 113, 2-(4-Cyano-3-trifluoromethyl-phenoxy)-pentanoic acid [1-(4-methoxy-phenyl)-ethyl]-amide] |  | 654 | 681 |
| CCSCCNC(=O)C(CC(C)C)Oc1ccc(C#N)c(C(F)(F)F)c1 (stereo not shown) [Example 114, 2-(4-Cyano-3-trifluoromethyl-phenoxy)-4-methyl-pentanoic acid (2-ethyl sulfanyl-ethyl)-amide] |  | 102 | 727 |
